In PMC6664820, “Novel natural and synthetic inhibitors of solute carriers SGLT1 and SGLT2” (Pharmacology Research & Perspectives, 2019):
Where a name gives a salt, the structure may show the parent alone. Read-outs that look alike come from different tables or passages of the source.

Tests used:
[1] = system: CHO‐hSGLT1/2 cells; assay: Cytotoxicity assay (ToxiLight, adenylate kinase leakage into CHO‐SGLT1/2 inhibition assay media); parameters: CYTOTOXICITY / CY[…], mean / CYTOTOXICITY (% of vehicle control) Mean / CYTOTOXICITY, mean / CY[…] (% of vehicle control) Mean: dose or concentration left out as unconfirmed; conditions: for CYTOTOXICITY, mean: ToxiLight, adenylate kinase leakage;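 for all read-outs here: bioluminescent read-out of adenylate kinase released from lysed cells into the medium, given relative to DMSO vehicle control defined as 0%, higher meaning more cytolysis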
Protocol: The cytotoxicity of representative SGLT1/2 inhibitors and compounds from the different chemical clusters was tested. Cytotoxicity was determined using the ToxiLight bioassay kit according to the supplier's instructions. This nondestructive assay measures leakage of the enzyme adenylate kinase (AK) from damaged cells into the CHO‐SGLT1/2 inhibition assay media, ie the degree of cytolysis. […] Next, bioluminescence was measured using a FlexStation 3 Multi‐Mode Microplate Reader (Molecular Devices) by 1 second integrated reading. Cytotoxicity was expressed as the percentage of bioluminescence of the DMSO vehicle control which was set at 0%. If applicable, statistical outliers were determined using Grubbs’ test (alpha = 0.05) and excluded for calculation of the mean ± SD.

[2] = biological target: T1, SGLT1 (Homo sapiens, UniProt P13866); assay: SGLT1 inhibition assay for validation of screening hits and similar compounds (1‐NBD‐glucose uptake, CHO‐hSGLT1 cells); type: cell-based; parameters: activity: dose or concentration left out as unconfirmed; conditions: for activity: compound, normalized 1-NBD-glucose uptake, CHO-hSGLT1 cells; for activity / remaining activity at 5 µM / remaining activity at 50 µM: mean; for remaining activity at 5 µM / remaining activity at 50 µM: 0.5 h, concentration not given, read-out: NORMALIZED SGLT1 ACTIVITY (%)
T1 sequence (P13866 1-664): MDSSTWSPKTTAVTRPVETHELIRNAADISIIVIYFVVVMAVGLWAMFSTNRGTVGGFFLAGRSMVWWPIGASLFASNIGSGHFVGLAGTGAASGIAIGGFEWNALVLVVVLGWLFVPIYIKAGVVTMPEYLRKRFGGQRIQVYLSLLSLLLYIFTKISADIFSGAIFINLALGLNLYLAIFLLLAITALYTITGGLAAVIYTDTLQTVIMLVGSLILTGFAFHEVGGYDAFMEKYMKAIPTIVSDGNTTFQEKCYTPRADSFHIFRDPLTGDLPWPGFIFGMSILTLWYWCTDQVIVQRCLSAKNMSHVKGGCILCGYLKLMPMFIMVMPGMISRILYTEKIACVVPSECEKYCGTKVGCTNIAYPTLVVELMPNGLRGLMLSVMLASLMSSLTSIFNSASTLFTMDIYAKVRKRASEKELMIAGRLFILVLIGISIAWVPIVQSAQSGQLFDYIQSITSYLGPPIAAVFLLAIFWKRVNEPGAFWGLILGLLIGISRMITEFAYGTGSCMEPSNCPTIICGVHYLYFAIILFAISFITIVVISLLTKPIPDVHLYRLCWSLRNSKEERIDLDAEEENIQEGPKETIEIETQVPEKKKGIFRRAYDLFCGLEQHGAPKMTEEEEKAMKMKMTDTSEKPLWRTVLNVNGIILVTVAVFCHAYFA

[3] = biological target: T2, hSGLT2 (Homo sapiens, UniProt P31639); assay: SGLT2 inhibition assay for validation of screening hits and similar compounds (1‐NBD‐glucose uptake, CHO‐hSGLT2 cells); type: cell-based; parameters: activity: dose or concentration left out as unconfirmed; conditions: for activity: compound, normalized 1-NBD-glucose uptake, CHO-hSGLT2 cells; for activity / remaining activity at 5 µM / remaining activity at 50 µM: mean; for remaining activity at 5 µM / remaining activity at 50 µM: 0.5 h, concentration not given, read-out: NORMALIZED SGLT2 ACTIVITY (%); for SGLT2/SGLT1 ACTIVITY RATIO, first concentration / SGLT2/SGLT1 ACTIVITY RATIO, second concentration: ratio of normalized SGLT2 to SGLT1 activity
T2 sequence (P31639 1-672): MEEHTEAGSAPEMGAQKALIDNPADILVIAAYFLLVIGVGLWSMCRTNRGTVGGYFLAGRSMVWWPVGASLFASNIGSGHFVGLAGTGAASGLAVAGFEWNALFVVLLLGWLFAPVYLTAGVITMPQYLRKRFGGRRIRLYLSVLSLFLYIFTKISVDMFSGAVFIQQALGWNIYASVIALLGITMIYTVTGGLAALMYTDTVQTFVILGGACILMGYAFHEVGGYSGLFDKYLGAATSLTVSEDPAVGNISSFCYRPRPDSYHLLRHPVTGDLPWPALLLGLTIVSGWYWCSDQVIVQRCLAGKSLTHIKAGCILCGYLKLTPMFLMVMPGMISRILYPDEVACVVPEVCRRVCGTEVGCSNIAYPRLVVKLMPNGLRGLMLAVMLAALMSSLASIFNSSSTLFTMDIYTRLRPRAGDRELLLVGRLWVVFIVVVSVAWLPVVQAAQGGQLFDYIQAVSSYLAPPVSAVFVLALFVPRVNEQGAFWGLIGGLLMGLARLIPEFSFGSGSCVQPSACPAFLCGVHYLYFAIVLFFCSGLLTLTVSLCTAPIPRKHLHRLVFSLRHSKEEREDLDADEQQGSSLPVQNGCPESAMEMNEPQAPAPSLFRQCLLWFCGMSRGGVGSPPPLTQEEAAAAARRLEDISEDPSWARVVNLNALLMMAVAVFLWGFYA

[4] = ratio of normalized SGLT2 to SGLT1 activity at 5 uM

Row | Structure (SMILES) | CYTOTOXICITY (% of vehicle control) Mean ([1]; mean) | activity [2] [%] | activity [3] [%] | SGLT2/SGLT1 ACTIVITY RATIO 5 uM Mean [3, 4] | also measured
1 | CCOC(=O)c1ccc(OC2OC(CO)C(O)C(O)C2O)cc1 (stereo not shown) [Clivicolide] | 12 % of vehicle control | 99 | 111 | 1.1 | –
2 | O=C1c2cc(CO)cc(O)c2C(=O)c2c(O[C@@H]3O[C@H](CO)[C@@H](O)[C@H](O)[C@H]3O)cccc21 [Aloe-emodin-8-O-b-D-glucopyranoside] | -3.25 % of vehicle control | 100 | 100 | 1.0 | –
3 | OC(CCN1CCCCC1)(c1ccccc1)C1CCCCC1 (racemic) [(±)-Trihexyphenidyl HCl] | – | – | – | – | CY[…] (% of vehicle control) Mean ([1]; mean): -12 % of vehicle control; SGLT2/SGLT1 ACTIVITY RATIO 5 uM Mean [3]: 1.0; SGLT2/SGLT1 ACTIVITY RATIO 50 mM Mean [3]: 1.3
4 | C[C@@H]1O[C@@H](O[C@H]2[C@H](O[C@H]3CC[C@@]4(C)[C@@H](CC[C@]5(C)[C@@H]4CC=C4[C@@H]6CC(C)(C)CC[C@]6(C(=O)O)CC[C@]45C)[C@]3(C)CO)OC[C@H](O)[C@@H]2O)[C@H](O)[C@H](O[C@@H]2O[C@H](CO)[C@@H](O)[C@H](O)[C@H]2O)[C@H]1O [Kalopanaxsaponin H] | – | – | – | – | CYTOTOXICITY ([1]; mean): -33; remaining activity at 5 µM [2]: 104%; remaining activity at 50 µM [2]: 99%; remaining activity at 5 µM [3]: 117%; remaining activity at 50 µM [3]: 110%
5 | COc1cc2c(=O)c(-c3ccc(O)cc3)coc2cc1O[C@@H]1O[C@H](CO)[C@@H](O)[C@H](O)[C@H]1O [Glycitin] | -22 % of vehicle control | – | 106 | 1.1 | –
6 | CC1(C)C(=O)C=C[C@@]2(C)C1=C(O)C(=O)[C@]1(C)[C@@H]2[C@@H](O)CC2=C(c3ccoc3)C[C@@H](O)[C@]21C [Walsuronoid B] | – | – | – | – | CYTOTOXICITY, mean [1]: -23; SGLT2/SGLT1 ACTIVITY RATIO, first concentration [3]: 0.9; SGLT2/SGLT1 ACTIVITY RATIO, second concentration [3]: 1.0
7 | C1CCC(C(CC2CCCCN2)C2CCCCC2)CC1 (stereo not shown) [Perhexiline maleate salt] | – | – | – | – | CY[…] 50 mM ([1]; mean, at 50 mM (so in the source)): 0.684; remaining activity at 5 µM [2]: 98%; remaining activity at 50 µM [2]: 49%; remaining activity at 5 µM [3]: 88%; remaining activity at 50 µM [3]: 38%
8 | O=C1C[C@@H](c2ccc(O[C@@H]3O[C@H](CO)[C@@H](O)[C@H](O)[C@H]3O)cc2)Oc2cc(O)ccc21 [Liquiritin] | -10 % of vehicle control | – | 101 | 1.0 | –
9 | CC(CN(C)C)CN1c2ccccc2CCc2ccccc21 (stereo not shown) [Trimipramine maleate] | – | – | 87 | 1.0 | CY[…] (% of vehicle control) Mean ([1]; mean): -9 % of vehicle control
10 | CN1CCC(OC(c2ccccc2)c2ccccc2)CC1 [Diphenylpyraline HCl] | – | 108 | 104 | 1.0 | CY[…] (% of vehicle control) Mean ([1]; mean): -6 % of vehicle control
11 | CCC(C)C(=O)O[C@H]1[C@H](OC(C)=O)c2c(ccc3ccc(=O)oc23)OC1(C)C (stereo partly shown) [peucedanocoumarin I] | 4.22 % of vehicle control | 95 | 102 | 1.1 | SGLT2/SGLT1‐50μmol/L (ratio of SGLT2 to SGLT1 activities with 50 μmol/L inhibitor) [2]: 2
12 | Cc1cccc(C)c1NC(=O)C1CCCCN1C (racemic) [(±)-Mepivacaine HCl] | – | – | – | – | CYTOTOXICITY ([1]; mean): 3; remaining activity at 5 µM [2]: 98%; remaining activity at 50 µM [2]: 89%; remaining activity at 5 µM [3]: 89%; remaining activity at 50 µM [3]: 82%
13 | CN1CCOC(c2ccccc2)c2ccccc2C1 (stereo not shown) [Nefopam HCl] | – | – | – | 0.9 | CY[…] (% of vehicle control) Mean ([1]; mean): -25 % of vehicle control
14 | CCN(CC)CCOC(=O)C1(c2ccccc2)CCCC1 [Caramiphen HCl] | -5.41 % of vehicle control | 101 | 88 | 0.9 | –
15 | CC1(C)Oc2ccc3ccc(=O)oc3c2[C@H](O)[C@@H]1O [cis-Khellactone] | -9 % of vehicle control | 102 | 95 | 0.9 | –
16 | C/C=C(/C)C(=O)O[C@@H]1Cc2c(ccc3ccc(=O)oc23)OC1(C)C [Selinidin] | -6 % of vehicle control | 99 | 94 | 0.952 | inhibition at 50 µM ([2]; mean inhibition with 50 μmol/L inhibitor, read-out: SGLT1 inhibition): 12%; inhibition at 50 µM ([3]; mean inhibition with 50 μmol/L inhibitor): 25%
17 | COc1cc(O)c2c(=O)c(-c3ccc(OC4OC(CO)C(O)C(O)C4O)cc3)coc2c1 (stereo not shown) [Prunetin-4-p-galactoside] | -26 % of vehicle control | 81 | 100 | 1.2 | –
18 | CC(=O)OC1c2c(ccc3ccc(=O)oc23)OC(C)(C)C1OC(=O)C=C(C)C (stereo not shown) [Samidin] | -10 % of vehicle control | 85 | 94 | 1.1 | –
19 | CC(=O)O[C@H]1C[C@@H](OC(C)=O)[C@@]2(C)CO[C@H]3[C@@H](O)[C@@]4(C)C5=CC[C@@H](c6ccoc6)[C@]5(C)CC[C@@H]4[C@]1(C)[C@@H]32 [1,3-Diacetylvilasinin] | – | – | – | – | CYTOTOXICITY, mean [1]: -18; SGLT2/SGLT1 ACTIVITY RATIO, first concentration [3]: 1.1; SGLT2/SGLT1 ACTIVITY RATIO, second concentration [3]: 1.1
20 | CCN(CC)CCOC(=O)C(c1ccccc1)C1CCCCC1 (stereo not shown) [Drofenine HCl] | – | – | 72 | – | CY[…] (% of vehicle control) Mean ([1]; mean): 1.71 % of vehicle control
21 | CNCCCN1c2ccccc2CCc2ccccc21 [Desipramine HCl] | – | – | – | 0.759 | CY[…] (% of vehicle control) Mean ([1]; mean): -19 % of vehicle control
22 | CC(C)COCC(CN(Cc1ccccc1)c1ccccc1)N1CCCC1 (stereo not shown) [Bepridil HCl] | – | – | 65 | 1.1 | CY[…] (% of vehicle control) Mean ([1]; mean): 3.67 % of vehicle control
23 | CC1(C)C(=O)C=C[C@@]2(C)C1=C(O)C(=O)[C@]1(C)[C@@H]2CC[C@@]2(C)[C@H](c3ccoc3)C[C@H]3O[C@]321 [Cedrelone] | – | – | – | – | CYTOTOXICITY, mean [1]: -26; SGLT2/SGLT1 ACTIVITY RATIO, first concentration [3]: 1.2; SGLT2/SGLT1 ACTIVITY RATIO, second concentration [3]: 1.1
24 | CC1(C)C(=O)C=C[C@@]2(C)C1=C(O)C(=O)[C@]1(C)[C@@H]2[C@@H](O)C[C@@]2(C)[C@H](c3ccoc3)C[C@H]3O[C@]321 [11beta-Hydroxycedrelone] | – | – | – | – | CYTOTOXICITY, mean [1]: -13; SGLT2/SGLT1 ACTIVITY RATIO, first concentration [3]: 1.7; SGLT2/SGLT1 ACTIVITY RATIO, second concentration [3]: 1.2
25 | CC(=O)O[C@@H]1C[C@H](O)[C@@]23CO[C@@H](O)[C@]1(C)[C@@H]2C[C@@H](O)[C@]1(C)[C@@H]3C(=O)[C@H](OC(C)=O)[C@@]2(C)[C@H](c3ccoc3)C[C@H]3O[C@]321 [Toosendanin] | – | – | – | – | CYTOTOXICITY, mean [1]: -4.53; SGLT2/SGLT1 ACTIVITY RATIO, first concentration [3]: 1.0; SGLT2/SGLT1 ACTIVITY RATIO, second concentration [3]: 1.0
26 | CC1(C)OC(=O)C=C[C@]2(C)[C@H]3CC[C@@]4(C)[C@H](c5ccoc5)OC(=O)[C@H]5O[C@]54[C@]3(C)C(=O)C[C@@H]12 [Obacunone] | – | – | – | – | CYTOTOXICITY, mean [1]: -21; SGLT2/SGLT1 ACTIVITY RATIO, first concentration [3]: 1.2; SGLT2/SGLT1 ACTIVITY RATIO, second concentration [3]: 1.1
27 | CC=C(C)C(=O)O[C@H]1c2c(ccc3ccc(=O)oc23)OC(C)(C)[C@H]1OC(=O)C(C)=CC [Praeruptorin B - JR MediChem] | -19 % of vehicle control | – | – | 0.9 | –
28 | CN1[C@@H]2CC[C@H]1C[C@@H](OC(c1ccccc1)c1ccccc1)C2 [Benztropine mesylate] | – | – | 73 | – | CY[…] (% of vehicle control) Mean ([1]; mean): -10 % of vehicle control
